What was measured:
Test in all cases: Cancer cell growth inhibition
Format in all cases: cell-based
[1] = tested on: 22RV1; conditions: Homo sapiens; 22RV1 (prostate), 72 hr treatment
Procedure: (§1) The ability of select compounds to inhibit cell growth in various cancer cell lines are evaluated. […] The cell lines shown in Table 2 have reduced growth by at least 50% at 10 uM or lower over 72 hr treatment in growth media. The cell lines shown in Table 3 have reduced growth by at least 50% with an IC50 greater than 10 uM.
(§2) Six 10-fold compound dilutions are prepared in DMSO (e.g. 10 mM, 1 mM, 100 uM, 10 uM, 1 uM, and 0.1 uM). Single data points are acquired for each concentration. The final concentration of DMSO is 0.1%. The duration of the treatment is 72 hr. Growth inhibition is measured using Sulforhodamine B in a protein staining assay. Activity of the agents is determined by evaluation the following parameters: IC50, GI50, IC10, TGI, LC50, IC90, and GI90 (where these values can be calculated).

[2] = tested on: 786O; conditions: Homo sapiens, 786-0; 786O (kidney), 72 hr treatment
Procedure: as §1, §2

[3] = tested on: A2780; conditions: Homo sapiens; A2780 (ovary), 72 hr treatment
Procedure: as §1, §2

[4] = tested on: A431; conditions: Homo sapiens, A-431; A431 (skin), 72 hr treatment
Procedure: as §1, §2

[5] = tested on: A673; conditions: Homo sapiens; A673 (muscle), 72 hr treatment
Procedure: as §1, §2

[6] = tested on: BXPC3; conditions: Homo sapiens, BXPC-3; BXPC3 (pancreas), 72 hr treatment
Procedure: as §1, §2

[7] = tested on: CASKI; conditions: Homo sapiens, Ca-Ski; CASKI (endometrial), 72 hr treatment
Procedure: as §1, §2

[8] = tested on: EJ28; conditions: Homo sapiens, EJ-28; EJ28 (bladder), 72 hr treatment
Procedure: as §1, §2

[9] = tested on: HEK293; conditions: Homo sapiens; HEK293 (kidney), 72 hr treatment
Procedure: as §1, §2

[10] = tested on: HELA; conditions: Homo sapiens; HELA (endometrial), 72 hr treatment
Procedure: as §1, §2

[11] = tested on: HEPG2; conditions: Homo sapiens; HEPG2 (liver), 72 hr treatment
Procedure: as §1, §2

[12] = tested on: HL-60; conditions: Homo sapiens; HL-60 (hematological), 72 hr treatment
Procedure: as §1, §2

[13] = tested on: HS729; conditions: HS729 (muscle), 72 hr treatment
Procedure: as §1, §2

[14] = tested on: JAR; conditions: JAR (placenta), 72 hr treatment
Procedure: as §1, §2

[15] = tested on: JIMT1; conditions: Homo sapiens, JIMT-1; JIMT1 (breast), 72 hr treatment
Procedure: as §1, §2

[16] = tested on: L-363; conditions: Homo sapiens; L-363 (hematological), 72 hr treatment
Procedure: as §1, §2

[17] = tested on: MDAMB468; conditions: Homo sapiens, MDA-MB-468; MDAMB468 (breast), 72 hr treatment
Procedure: as §1, §2

[18] = tested on: MHHES1; conditions: Homo sapiens, MHH-ES-1; MHHES1 (bone), 72 hr treatment
Procedure: as §1, §2

[19] = tested on: MINO; conditions: Homo sapiens; MINO (hematological), 72 hr treatment
Procedure: as §1, §2

[20] = tested on: NCIH292; conditions: Homo sapiens, NCI-H292; NCIH292 (lung), 72 hr treatment
Procedure: as §1, §2

[21] = tested on: NCIH358M; conditions: NCI-H358M; NCIH358M (lung), 72 hr treatment
Procedure: as §1, §2

[22] = tested on: NCIH460; conditions: Homo sapiens, NCI-H460; NCIH460 (lung), 72 hr treatment
Procedure: as §1, §2

[23] = tested on: OVCAR3; conditions: Homo sapiens, OVCAR-3; OVCAR3 (ovary), 72 hr treatment
Procedure: as §1, §2

[24] = tested on: PANC1005; conditions: Homo sapiens; PANC1005 (pancreas), 72 hr treatment
Procedure: as §1, §2

[25] = tested on: PLCPRF5; conditions: Homo sapiens, PLC-PRF-5; PLCPRF5 (liver), 72 hr treatment
Procedure: as §1, §2

[26] = tested on: SKLMS1; conditions: Homo sapiens, SK-LMS-1; SKLMS1 (uterus), 72 hr treatment
Procedure: as §1, §2

[27] = tested on: SKMEL5; conditions: Homo sapiens, SK-MEL-5; SKMEL5 (skin), 72 hr treatment
Procedure: as §1, §2

[28] = tested on: SKNSH; conditions: Homo sapiens, SK-N-SH; SKNSH (brain), 72 hr treatment
Procedure: as §1, §2

[29] = tested on: SU-DHL-6; conditions: Homo sapiens; SU-DHL-6 (hematological), 72 hr treatment
Procedure: as §1, §2

[30] = tested on: THP-1; conditions: Homo sapiens; THP-1 (hematological), 72 hr treatment
Procedure: as §1, §2

[31] = tested on: U2OS; conditions: Homo sapiens; U2OS (bone), 72 hr treatment
Procedure: as §1, §2

[32] = tested on: WSU-NHL; conditions: Homo sapiens; WSU-NHL (hematological), 72 hr treatment
Procedure: as §1, §2

Row | SMILES | IC50 [1] [µM] | IC50 [2] [µM] | IC50 [3] [µM] | IC50 [4] [µM] | IC50 [5] [µM] | IC50 [6] [µM] | IC50 [7] [µM] | IC50 [8] [µM] | IC50 [9] [µM] | IC50 [10] [µM] | IC50 [11] [µM] | IC50 [12] [µM] | IC50 [13] [µM] | IC50 [14] [µM] | IC50 [15] [µM] | IC50 [16] [µM] | IC50 [17] [µM] | IC50 [18] [µM] | IC50 [19] [µM] | IC50 [20] [µM] | also measured
1 | CC(C)(CO)c1cc(-c2csc(-c3ccc(NS(C)(=O)=O)cc3Cl)c2)ccn1 [Compound I-8909, N-(3-chloro-4-(4-(2-(1-hydroxy-2-methylpropan-2-yl)pyridin-4-yl)thiophen-2-yl)phenyl)methanesulfonamide] | < 10 | < 10 | < 10 | > 10 | > 10 | > 10 | > 10 | > 10 | < 10 | < 10 | < 10 | < 10 | > 10 | < 10 | < 10 | < 10 | < 10 | < 10 | < 10 | < 10 | IC50 [21]: < 10 µM; IC50 [22]: < 10 µM; IC50 [23]: < 10 µM; IC50 [24]: < 10 µM; IC50 [25]: < 10 µM; IC50 [26]: > 10 µM; IC50 [27]: < 10 µM; IC50 [28]: < 10 µM; IC50 [29]: < 10 µM; IC50 [30]: < 10 µM; IC50 [31]: > 10 µM; IC50 [32]: < 10 µM
2 | CS(=O)(=O)Nc1ccc(-c2cc(-c3ccnc4c3OCCO4)cs2)c(Cl)c1 [Compound I-9017, N-(3-chloro-4-(4-(2,3-dihydro-[1,4]dioxino[2,3-b]pyridin-8-yl)thiophen-2-yl)phenyl)methanesulfonamide] | < 10 | < 10 | < 10 | > 10 | < 10 | < 10 | > 10 | > 10 | < 10 | < 10 | < 10 | < 10 | > 10 | < 10 | < 10 | < 10 | < 10 | < 10 | < 10 | < 10 | IC50 [21]: < 10 µM; IC50 [22]: < 10 µM; IC50 [23]: < 10 µM; IC50 [24]: > 10 µM; IC50 [25]: < 10 µM; IC50 [26]: > 10 µM; IC50 [27]: < 10 µM; IC50 [28]: < 10 µM; IC50 [29]: < 10 µM; IC50 [30]: < 10 µM; IC50 [31]: < 10 µM; IC50 [32]: < 10 µM
3 | CC(C)(O)Cc1cc(-c2csc(-c3ccc(NS(C)(=O)=O)cc3Cl)c2)ccn1 [Compound I-9004, N-(3-chloro-4-(4-(2-(2-hydroxy-2-methylpropyl)pyridin-4-yl)thiophen-2-yl)phenyl)methanesulfonamide] | < 10 | < 10 | < 10 | > 10 | > 10 | > 10 | > 10 | > 10 | < 10 | < 10 | < 10 | < 10 | > 10 | < 10 | < 10 | < 10 | < 10 | < 10 | < 10 | < 10 | IC50 [21]: < 10 µM; IC50 [22]: < 10 µM; IC50 [23]: < 10 µM; IC50 [24]: < 10 µM; IC50 [25]: < 10 µM; IC50 [26]: > 10 µM; IC50 [27]: < 10 µM; IC50 [28]: < 10 µM; IC50 [29]: < 10 µM; IC50 [30]: < 10 µM; IC50 [31]: > 10 µM; IC50 [32]: < 10 µM
